The values that follow are results of earlier work, collected in publication PMC12042267, “Expanding the Family of Monosubstituted 15-Membered Pyridine-Based Macrocyclic Ligands for Mn(II) Complexation in the Context of MRI” (Inorganic Chemistry, 2025).

SMILES strings stand for the structures. Like-named read-outs stand apart in the source and are kept apart here.

The conditions of data set [1]: cited from earlier work.
The conditions of data set [2]: 20 MHz, 0.47 T ref 28, cited from earlier work.
For data set [3] the following is noted: cited from earlier work. The source holds these as a separate data set.

As to `O.O.[Mn+2].c1cc2nc(c1)CNCCOCCOCCNC2` [Mn(15-pyN3O2)], in data set [1], the AO/ℏ is 38.6 10^6 rad s^–1, the ErH is listed as 16.1 kJ mol^–1, the “kex^298” value is listed as 0.38 10^7 s^–1 and the “ΔH^‡” value was 35.3 kJ mol^–1. Besides, in data set [1], the “ΔS^‡” value is listed as “–1.0 J mol^–1K^–1”, the “Δ^2” value is 6.6 10^18 s^–2, the “τrH^298” value was 40.3 ps and the “τv^298” value is reported as 3.3 ps. For the same compound, the “r1 (relaxivity)” value in data set [2] (25 °C) is 4.48 mM^–1 s^–1. Further, in data set [2] (37 °C), the “r1 (relaxivity)” value is 3.61 mM^–1 s^–1. For the same compound, the Eox in data set [3] is recorded as 912 mV.
